Measurements taken from patent publication US20090186024A1, “Gene Expression Signatures for Oncogenic Pathway Deregulation” (priority 2005, published 2009).

Tested on: breast cancer cell lines
Assay: Cell proliferation assays (growth inhibition, standard MTT/MTS colorimetric assay)
Format: cell-based
Conditions: 96 hrs, versus DMSO controls, FIG. 4B
Procedure: FIGS. 4A-4B show pathway deregulation in breast cancer cell lines predicts drug sensitivity. A. Pathway predictions in breast cancer cell lines. The results plotted show images of the predicted probability of pathway activation (red indicates high probability, blue indicates low probability). B. Sensitivity to pathway-specific drugs. Left panel. Cells were treated with 3.75 μM of farnesyltransferase inhibitor (L-744,832) for 96 hrs. Proliferation was assayed using a standard MTS tetrazolium colorimetric method. The degree of proliferation inhibition was plotted as a function of probability of Ras pathway activation as determined in panel A. Middle panel. Same as in left panel but using farnesylthiosalicylic acid (200 μM). Right panel. Same as in left panel but using the Src pathway inhibitor SU6656 (1.5 μM), and with the degree of proliferation inhibition plotted as a function of Src pathway activation. […]
Cell and RNA preparation. […] Expression of oncogenes and their secondary targets was determined by a standard Western Blotting protocol using a TGH lysis buffer (1% Triton X-100, 10% glycerol, 50 mM NaCl, 50 mM Hepes, pH 7.3, 5 mM EDTA, 1 mM sodium orthovanadate, 1 mM PMSF, 10 μg/ml leupeptine, 10 μg/ml aprotinin). […] Protein quantitation of lysates was determined by BCA [Pierce] prior to electrophoresis with a 10-12% SDS-PAGE gel. Activation status of kinase pathways for the breast cancer cell lines was determined for growing cells (at 75% confluency) 48 hours after plating using the following methods. Ras activation is measured using a Ras Activation Assay Kit (Upstate Biotechnology) that consists of a GST fusion-protein corresponding to the human Ras Binding Domain (RBD, residues 1-149) of Raf-1. […] Western Blotting for immunoprecipitated H/K-Ras is detected using an H/K-Ras specific antibody (Santa Cruz Biotechnology, #sc-520 and sc-F234). c-Src activation was determined by Western Blotting using a phospho-Tyr416 Src antibody (Cell Signaling, #2101). […]

SMILES: CN(C)S(=O)(=O)c1ccc2c(c1)/C(=C/c1cc3c([nH]1)CCCC3)C(=O)N2 [SU6656]
- relation between probability of Src pathway deregulation (gene expression prediction) and extent of cell proliferation inhibition by the drug: close concordance and correlation

SMILES: CC[C@H](C)[C@@H](CO[C@@H](Cc1ccccc1)C(=O)N[C@@H](CCS(C)(=O)=O)C(=O)OC(C)C)NC[C@@H](N)CS [L-744,832]
- relation between probability of Ras pathway deregulation (gene expression prediction) and extent of cell proliferation inhibition by the drug: close concordance and correlation

SMILES: CC(C)=CCCC(C)=CCCC(C)=CCSc1ccccc1C(=O)O [FTS, farnesylthiosalicylic acid]
- relation between probability of Ras pathway deregulation (gene expression prediction) and extent of cell proliferation inhibition by the drug: close concordance and correlation
